Measurements reported in patent US12503452B2 (Curza Global, LLC, priority 2019, dated 2025).
Counter-ions that a name gives are not always drawn. Like-named read-outs stand apart in the source and are kept apart here.

Tests used:
[1] = system: E. coli S30 extract (bacterial protein synthesis); assay: E. coli S30 extract coupled transcription-translation luciferase assay (inhibition of bacterial protein synthesis); format: biochemical; conditions: read-out: S30 IC50 (μM/% inhib.)
How it was run: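 Luminescent read-out of luciferase made from pBESTluc DNA by E. coli S30 extract after 1 h at 37 °C with compound in an 8-point 2-fold series. Background came from no-DNA reactions. Percent inhibition was calculated against water-only controls.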

E. coli (Ec) = assay: Broth microdilution minimum inhibitory concentration (MIC); format: cell-based; conditions: for MIC: Escherichia coli, read-out: E. coli + bicarb MIC
How it was run: (§1)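 MICs were run in triplicate per CLSI microdilution (modified, 8 dilution steps), inoculating 5×10^4 CFU/well prepared from colonies grown at 35±2° C to 0.5 McFarland. Media: CAMHB alone, with 6.25 or 25 mM final sodium bicarbonate, or with 0–50% heat-inactivated human serum.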

P. aeruginosa (Pa) = assay: as above; format: cell-based; conditions: for MIC: Pseudomonas aeruginosa, read-out: Pa MIC + bicarb
How it was run: as §1

S. aureus (Sa) = assay: as above; format: cell-based; conditions: for MIC: Staphylococcus aureus, read-out: Sa + bicarb MIC
How it was run: as §1

A. baumannii (Ab) = assay: as above; format: cell-based; conditions: for MIC: Acinetobacter baumannii, read-out: Ab + bicarb MIC
How it was run: as §1

E. faecalis (Ef) = assay: as above; format: cell-based; conditions: for MIC: Enterococcus faecalis, read-out: Ef + bicarb MIC
How it was run: as §1

[2] = biological target: Rabbit Reticulocyte Lysate (eukaryotic protein synthesis); assay: Rabbit reticulocyte lysate luciferase assay (inhibition of eukaryotic protein synthesis); format: biochemical; conditions: read-out: Rabbit reticulocyte IC50 (μM/% inhib.)
How it was run: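 Compounds were tested in 8-point 2-fold dilution series for blocking luciferase synthesis in nuclease-treated rabbit reticulocyte lysate (30° C., 90 minutes). Luminescence read-out, corrected by no-RNA background, was expressed as % inhibition against water-only reactions.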

[3] = class by IC50 or % inhibition @ 1 μM
[4] = E. coli, growth medium with sodium bicarbonate
[5] = P. aeruginosa, growth medium with sodium bicarbonate
[6] = S. aureus, growth medium with sodium bicarbonate
[7] = A. baumannii, growth medium with sodium bicarbonate
[8] = E. faecalis, growth medium with sodium bicarbonate
[9] = E. coli, growth medium supplemented with sodium bicarbonate
[10] = P. aeruginosa, growth medium supplemented with sodium bicarbonate
[11] = S. aureus, growth medium supplemented with sodium bicarbonate
[12] = A. baumannii, growth medium supplemented with sodium bicarbonate
[13] = E. faecalis, growth medium supplemented with sodium bicarbonate

Structure (SMILES) | IC50 [1, 3] [µM] | MIC (E. coli (Ec); [4]) [µg/mL] | MIC (P. aeruginosa (Pa); [5]) [µg/mL] | MIC (S. aureus (Sa); [6]) [µg/mL] | MIC (A. baumannii (Ab); [7]) [µg/mL] | MIC (E. faecalis (Ef); [8]) [µg/mL] | IC50 [2, 3] [µM] | further results
C[C@@H]1CN(Cc2ccc(-n3ccc(NC(=O)N4CCN(C(=O)C(C)(C)N)CC4)nc3=O)cc2)CC[C@H]1N [Compound 210] | < 0.5 | < 8 | > 32 | < 8 | > 32 | < 8 | > 1 | –
CC(Cc1ccc(-n2ccc(NC(=O)N3CCN(C(=O)C(C)(C)N)CC3)nc2=O)cc1)N1CC(CCN)C1 (centres unmarked) [Compound 347, hydrochloride salt] | 0.5 to 1 | – | – | – | – | – | > 1 | MIC (E. coli (Ec)): < 8 µg/mL; MIC (P. aeruginosa (Pa)): > 32 µg/mL; MIC (S. aureus (Sa)): 8 to 32 µg/mL; MIC (A. baumannii (Ab)): > 32 µg/mL; MIC (E. faecalis (Ef)): > 32 µg/mL
CC(C)(N)C(=O)N1CCN(C(=O)Nc2ccn(-c3ccc(CN4CC(C5CCNCC5)C4)cc3)c(=O)n2)CC1 [Compound 377] | – | < 8 | > 32 | < 8 | > 32 | > 32 | – | IC50 ([1]; % inhibition @ 1 μM): < 0.5 µM; IC50 ([2]; % inhibition @ 1 μM): > 1 µM
CCN(Cc1ccc(-n2ccc(NC(=O)N3CCN(C(=O)C(C)(C)N)CC3)nc2=O)cc1)[C@H]1CC[C@H](N)C1 [Compound 125] | < 0.5 | – | – | – | – | – | > 1 | MIC (E. coli (Ec); [9]): < 8 µg/mL; MIC (P. aeruginosa (Pa); [10]): > 32 µg/mL; MIC (S. aureus (Sa); [11]): < 8 µg/mL; MIC (A. baumannii (Ab); [12]): > 32 µg/mL; MIC (E. faecalis (Ef); [13]): < 8 µg/mL
CC(Cc1ccc(-n2ccc(NC(=O)N3CCN(C(=O)C(C)(C)N)CC3)nc2=O)cc1)N(C)C[C@H]1C[C@H](N)C1 (some centres unmarked) [Compound 157] | < 0.5 | – | – | – | – | – | > 1 | MIC (E. coli (Ec); [9]): < 8 µg/mL; MIC (P. aeruginosa (Pa); [10]): > 32 µg/mL; MIC (S. aureus (Sa); [11]): < 8 µg/mL; MIC (A. baumannii (Ab); [12]): > 32 µg/mL; MIC (E. faecalis (Ef); [13]): < 8 µg/mL
CC(C)(N)C(=O)N1CCN(C(=O)Nc2ccn(-c3ccc(CN4CCC(CN)CC4)cc3)c(=O)n2)CC1 [Compound 245] | < 0.5 | < 8 | > 32 | < 8 | > 32 | < 8 | > 1 | –
CC(C)(N)C(=O)N1CCN(C(=O)Nc2ccn(-c3ccc(CN4CC[C@@H](CN)C4)cc3)c(=O)n2)CC1 [Compound 243] | < 0.5 | < 8 | > 32 | < 8 | > 32 | 8 to 32 | > 1 | –
CC(C)(N)C(=O)N1CCN(C(=O)Nc2ccn(-c3ccc(CN4CC[C@H](CN)C4)cc3)c(=O)n2)CC1 [Compound 242] | < 0.5 | < 8 | > 32 | < 8 | > 32 | 8 to 32 | > 1 | –
CC1C[C@@H](N(C)Cc2ccc(-n3ccc(NC(=O)N4CCN(C(=O)C(C)(C)N)CC4)nc3=O)cc2)CC[C@@H]1N (some centres unmarked) [Compound 337] | < 0.5 | < 8 | > 32 | < 8 | > 32 | 8 to 32 | > 1 | –
CC(Cc1ccc(-n2ccc(NC(=O)N3CCN(C(=O)C(C)(C)N)CC3)nc2=O)cc1)N(C)[C@H]1CC[C@@H](N)C1 (some centres unmarked) [Compound 149] | < 0.5 | – | – | – | – | – | > 1 | MIC (E. coli (Ec); [9]): < 8 µg/mL; MIC (P. aeruginosa (Pa); [10]): > 32 µg/mL; MIC (S. aureus (Sa); [11]): < 8 µg/mL; MIC (A. baumannii (Ab); [12]): > 32 µg/mL; MIC (E. faecalis (Ef); [13]): 8 to 32 µg/mL
CC(Cc1ccc(-n2ccc(NC(=O)N3CCN(C(=O)C(C)(C)N)CC3)nc2=O)cc1)N1CC[C@H](CN)C1 (some centres unmarked) [Compound 378] | – | – | – | – | – | – | – | IC50 ([1]; % inhibition @ 1 μM): < 0.5 µM; E. coli + bicarb MIC (E. coli (Ec); [4]): +++ (An MIC value (μg/mL) that is less than 8 μg/mL); Pa MIC + bicarb (P. aeruginosa (Pa); [5]): + (An MIC value (μg/mL) that is 32 μg/mL or greater); Sa + bicarb MIC (S. aureus (Sa); [6]): +++ (An MIC value (μg/mL) that is less than 8 μg/mL); Ab + bicarb MIC (A. baumannii (Ab); [7]): + (An MIC value (μg/mL) that is 32 μg/mL or greater); Ef + bicarb MIC (E. faecalis (Ef); [8]): ++ (An MIC value (μg/mL) that is 8 μg/mL or greater and less than 32 μg/mL); IC50 ([2]; % inhibition @ 1 μM): > 1 µM
CC(Cc1ccc(-n2ccc(NC(=O)N3CCN(C(=O)C(C)(C)N)CC3)nc2=O)cc1)N(C)C1CCC(CN)CC1 (centres unmarked) [Compound 153] | > 1 | – | – | – | – | – | > 1 | MIC (E. coli (Ec); [9]): < 8 µg/mL; MIC (P. aeruginosa (Pa); [10]): > 32 µg/mL; MIC (S. aureus (Sa); [11]): < 8 µg/mL; MIC (A. baumannii (Ab); [12]): > 32 µg/mL; MIC (E. faecalis (Ef); [13]): > 32 µg/mL
CC(C)(N)C(=O)N1CCN(C(=O)Nc2ccn(-c3ccc(CCN[C@H]4CC[C@@H](CN)C4)cc3)c(=O)n2)CC1 (stereo in doubt) [Compound 177] | > 1 | < 8 | > 32 | < 8 | > 32 | > 32 | > 1 | –
CC(C)(N)C(=O)N1CCN(C(=O)Nc2ccn(-c3ccc(OCCN4CCCC(CN)C4)cc3)c(=O)n2)CC1 (centres unmarked) [Compound 188] | < 0.5 | < 8 | > 32 | < 8 | > 32 | < 8 | > 1 | –
CC(C)(N)C(=O)N1CCN(C(=O)Nc2ccn(-c3ccc(OCCN4CCCC(N)CC4)cc3)c(=O)n2)CC1 (centres unmarked) [Compound 187] | < 0.5 | < 8 | > 32 | < 8 | 8 to 32 | < 8 | > 1 | –
CN(Cc1ccc(-n2ccc(NC(=O)N3CCN(C(=O)C(C)(C)N)CC3)nc2=O)cc1)[C@@H]1CC[C@H](N)C1 [Compound 115] | < 0.5 | – | – | – | – | – | > 1 | MIC (E. coli (Ec); [9]): < 8 µg/mL; MIC (P. aeruginosa (Pa); [10]): > 32 µg/mL; MIC (S. aureus (Sa); [11]): < 8 µg/mL; MIC (A. baumannii (Ab); [12]): > 32 µg/mL; MIC (E. faecalis (Ef); [13]): 8 to 32 µg/mL
CCN(Cc1ccc(-n2ccc(NC(=O)N3CCN(C(=O)C(C)(C)N)CC3)nc2=O)cc1)[C@H]1CC[C@H](N)[C@@H](OC)C1 [Compound 341, hydrochloride salt] | 0.5 to 1 | – | – | – | – | – | > 1 | MIC (E. coli (Ec)): 8 to 32 µg/mL; MIC (P. aeruginosa (Pa)): > 32 µg/mL; MIC (S. aureus (Sa)): 8 to 32 µg/mL; MIC (A. baumannii (Ab)): > 32 µg/mL; MIC (E. faecalis (Ef)): > 32 µg/mL
CC(N)C1CCN(Cc2ccc(-n3ccc(NC(=O)N4CCN(C(=O)C(C)(C)N)CC4)nc3=O)cc2)CC1 (centres unmarked) [Compound 247] | < 0.5 | < 8 | > 32 | < 8 | > 32 | < 8 | > 1 | –
C[C@@H]1CN(C(=O)Nc2ccn(-c3ccc(CN4CCC(N)CC4)cc3)c(=O)n2)CCN1C(=O)C(C)(C)N [Compound 79] | < 0.5 | – | – | – | – | – | > 1 | MIC (E. coli (Ec); [9]): < 8 µg/mL; MIC (P. aeruginosa (Pa); [10]): > 32 µg/mL; MIC (S. aureus (Sa); [11]): < 8 µg/mL; MIC (A. baumannii (Ab); [12]): > 32 µg/mL; MIC (E. faecalis (Ef); [13]): 8 to 32 µg/mL
CC(C)(N)C(=O)N1CCN(C(=O)Nc2ccn(-c3ccc(CCN[C@H]4CC[C@H](N)CC4)cc3)c(=O)n2)CC1 [Compound 180] | 0.5 to 1 | < 8 | > 32 | 8 to 32 | > 32 | > 32 | > 1 | –
CC(C)(N)C(=O)N1CCN(C(=O)Nc2ccn(-c3ccc(CN4CCC(N)C(C)(C)C4)cc3)c(=O)n2)CC1 (centres unmarked) [Compound 254] | 0.5 to 1 | < 8 | > 32 | < 8 | < 8 | < 8 | > 1 | –
CC(Cc1ccc(-n2ccc(NC(=O)N3CCN(C(=O)C(C)(C)N)CC3)nc2=O)cc1)N[C@@H]1CC[C@@H](N)C1 (some centres unmarked) [Compound 173] | < 0.5 | < 8 | > 32 | < 8 | > 32 | 8 to 32 | > 1 | –
CC(Cc1ccc(-n2ccc(NC(=O)N3CCN(C(=O)C(C)(C)N)CC3)nc2=O)cc1)N1CC[C@@H](CN)C1 (some centres unmarked) [Compound 382] | – | < 8 | 8 to 32 | < 8 | > 32 | < 8 | – | IC50 ([1]; % inhibition @ 1 μM): < 0.5 µM; IC50 ([2]; % inhibition @ 1 μM): > 1 µM
